Results published in patent US20190307818A1, “NOVEL ANTIMICROBIAL COMPOSITIONS AND METHODS OF USE” (priority 2016, published 2019).

Key:
[1] = tested on: Wild-type P. aeruginosa pyocyanin production; assay: Pyocyanin virulence factor production; type: cell-based; settings: 100 μM overnight, back diluted, grown 18 hrs with inhibitor
Experimental: FIG. 6. QS inhibitors reduce the level of virulence factor production in P. aeruginosa. The ability of the small molecule inhibitors to reduce virulence factor production by monitoring pyocyanin production was assessed.
The ability of the small molecule QS inhibitors to reduce virulence factor production by monitoring production of pyocyanin as a representative virulence factor was assessed. Wild-type P. aeruginosa was incubated with the indicated molecules at 100 μM overnight, back diluted, and grown for 18 hrs in the presence of QS inhibitor.
By varying the concentration of QS inhibitors, dose dependence curves were generated.

[2] = biological target: T1, LasR (Pseudomonas aeruginosa, UniProt P25084); assay: 10-point autoinducer dose response on LasR reporter with QS inhibitor (competition); type: cell-based, P. aeruginosa; settings: inhibitor at 100 μM; increasing concentrations of AI
T1 construct: expressed in transfected cells; host or cells: E. coli TOP10 carrying pBAD-A 6xHIS-lasR and pCS26 plasB-luxCDABE
Experimental: FIG. 4. QS inhibitors bind non-competitively to LasR. A 10-point dose response curve with increasing concentrations of autoinducer 3-O—C12-HSL (AI) was generated for a variety of QS small molecule inhibitors. In this figure, curve C12 (filled circle) corresponds to the absence of inhibitor. […] Instead, the inhibitors bind elsewhere on LasR to prevent LasR-dependent transcription.
Using known molecular biology techniques, assays were performed to determine whether binding of the small molecule QS inhibitors and the AIs occurred by a competitive or by another inhibitory mechanism (see, e.g., FIG. 4).
Thus, a 10-point dose response curve with concentrations of AI ranging from 10 pM to 5 nM was generated for a variety of QS small molecule inhibitors. Curve C12 (dotted filled line) corresponds to the absence of inhibitor. […] Instead, the inhibitors bind elsewhere on LasR to prevent LasR-dependent transcription.

[3] = biological target: T2, RhlR (Pseudomonas aeruginosa, UniProt P54292); assay: Two plasmid E. coli RhlR reporter (luciferase); type: cell-based, P. aeruginosa; settings: read-out: Percent Activity (RhlR reporter)
T2 construct: expressed in transfected cells; host or cells: E. coli TOP10 carrying pBAD-A 6xHIS-rhlR and pCS26 prhlA-luxCDABE
Excerpt: A two plasmid E. coli reporter system was constructed, in which LasR or RhlR was expressed under an arabinose inducible promoter (e.g., LasR or RhlR was cloned into a pBAD-A vector and expressed upon addition of arabinose) in the presence of a LasR-dependent or RhlR-dependent promoter fused to luciferase (e.g., cloned into a pCS26 vector). Upon the addition of arabinose and in the presence of AI, LasR or RhlR were expressed, formed a complex with the cognate AI, underwent dimerization, and activated transcription of the reporter construct. All potential inhibitors were tested at 100 μM. The percent activity was reported relative to wild-type (100%).
A sample experimental protocol for the RhlR reporter (see, e.g., Table 5A2) or for the LasR reporter (see, e.g., Table 5A1).
For the RhlR reporter, strains were re-streaked on LB+appropriate antibiotic before each experiment and grown overnight at 37° C. Three colonies were picked and a 3 mL overnight culture in LB+appropriate antibiotic was started. The culture was grown overnight at 37° C. The overnight culture was back-diluted 1:1000 into fresh LB+appropriate antibiotic in an appropriate volume, depending on the number of plates being screened. Each well in a 384 well plate received about 20 μL of culture. An additional 25 mL of culture was reserved for priming the plate filler. The culture was grown at 37° C. until OD600˜0.5, which took about 4 hrs. A 384-well plate was prepared. Stock concentrations of molecules (e.g., small molecule inhibitors) were 10 mM.
For a 10-point dose response for the RhlR reporter, a 1:3 dilution of molecule:DMSO (333 μL of stock molecule, 667 μL of DMSO using a 1 mL pipetteman) was used for accurate dispensing by the robot dispenser. Upon a prompt by the software, the appropriate concentration of each molecule was added. Each well was normalized with a DMSO standard to bring the total % volume of DMSO up to 1% using the robot. Plates were set aside with dispensed drugs until the cells were ready. Once the cells reached an OD600 of 0.5, an appropriate amount of cell culture was dispensed for screening into an Erlenmeyer flask. (Extra culture was saved for a negative control.) Arabinose was added to 0.1% final concentration (1:1000 dilution from stock solution), and AI was added to 10 μM (ED75) from a 10 mM stock. The components of the flask were mixed together by swirling. As mentioned previously, other concentrations of AIs may be suitable, e.g., the concentrations may be in the range of 2 uM to 100 uM, from 10 uM to 100 uM or from 2 uM to 10 uM. In some embodiments, 2 nM of 3-O—C12-HSL (for LasR) and 10 uM of C4-HSL (for RhlR) were used.
A clean plate was filled with water, 70% ethanol, LB, and primed with cultured cells to ensure that initial dispensing led to the appropriate volume of cells being added to the wells. 20 μL of this solution was dispensed into appropriate wells in a 384-well plate that contained small molecule antagonists. 20 μL of this solution was dispensed into wells intended for a positive control that contain only DMSO. To the culture that was saved for negative control, arabinose was added to 0.1%. An equal volume of DMSO was added to the culture, relative to the amount of AI added to the other culture. 20 μL of culture was dispensed into wells intended for a negative control that contained only DMSO and no small molecule QS inhibitors. Plates were incubated at 30° C. in the plate shaker. Plates were read using a 384 LUM/OD 600 setting on the plate reader after 4 hours of induction.
For data analysis, the average and standard deviation for each of the control groups were determined. In a screen, for each data point, the number of standard deviations from the mean was determined to determine if the inhibitor was a “hit”. In a dose response curve, for each data point, the percent inhibition was determined: 1−(X/M), where X=single data point and M=is the mean of the AI only control group. […]

T1 sequence (P25084 whole entry): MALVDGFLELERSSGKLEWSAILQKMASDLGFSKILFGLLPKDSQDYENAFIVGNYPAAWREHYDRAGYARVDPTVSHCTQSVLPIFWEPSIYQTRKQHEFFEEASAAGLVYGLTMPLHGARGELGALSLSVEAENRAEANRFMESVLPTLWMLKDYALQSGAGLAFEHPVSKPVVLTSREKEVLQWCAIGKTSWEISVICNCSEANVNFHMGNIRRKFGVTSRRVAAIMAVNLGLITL
T2 sequence (P54292 whole entry): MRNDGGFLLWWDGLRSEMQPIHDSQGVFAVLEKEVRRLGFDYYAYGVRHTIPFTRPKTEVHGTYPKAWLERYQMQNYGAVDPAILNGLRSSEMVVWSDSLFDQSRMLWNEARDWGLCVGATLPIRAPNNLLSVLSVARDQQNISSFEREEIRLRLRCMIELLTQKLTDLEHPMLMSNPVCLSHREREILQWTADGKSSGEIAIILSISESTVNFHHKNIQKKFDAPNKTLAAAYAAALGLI

O=c1cc(-c2ccccc2)oc2cc(O)c(O)c(O)c12 [Molecule 46, Baicalein]
pyocyanin production [1]: inhibit pyocyanin to varying degrees | competition with autoinducer 3-O—C12-HSL for LasR [2]: did not compete | remaining activity at 100 µM [3]: 57.4%
